# Assay results as given in US8217029B2, “Oxazolidinone antibiotics” (Actelion Pharmaceuticals Ltd, priority 2007, dated 2012).
# System: S aureus A798
# Experiment: Minimal inhibitory concentration (MIC), microdilution method in cation-adjusted Mueller-Hinton Broth following NCCLS guidelines
# Format: cell-based
# Conditions: pH of test medium 7.2-7.3
# Method in brief: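 MICs (mg/l) came from NCCLS-guided microdilution, using cation-adjusted Mueller-Hinton medium adjusted to pH 7.2-7.3.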
Compound,MIC [µg/mL],MIC S aureus A798
"COc1ccc2nccc(N3CCN(C[C@@H]4CN(c5ccc(OC(F)(F)F)cc5)C(=O)O4)CC3)c2n1 [Example 11, (R)-5-[4-(6-Methoxy-[1,5]naphthyridin-4-yl)-piperazin-1-ylmethyl]-3-(4-trifluoromethoxy-phenyl)-oxazolidin-2-one]",0.063,–
"COc1ccc2nccc(N3CCC(NC[C@@H]4CN(c5ccc(OC(F)F)cc5)C(=O)O4)CC3)c2n1 [Example 185, (R)-3-(4-Difluoromethoxy-phenyl)-5-{[1-(6-methoxy-[1,5]naphthyridin-4-yl)-piperidin-4-ylamino]-methyl}-oxazolidin-2-one]",0.5,–
"COc1ccc2nccc(N3C[C@H]4CCN(C[C@@H]5CN(c6ccc7c(c6)OCCO7)C(=O)O5)[C@H]4C3)c2n1 (mixture of isomers) [Example 94, (R)-3-(2,3-Dihydro-benzo[1,4]dioxin-6-yl)-5-{[(3aR*,6aR*)-5-(6-methoxy-[1,5]naphthyridin-4-yl)-hexahydro-pyrrolo[3,4-b]pyrrol-1-yl]-methyl}-oxazolidin-2-one]",2,–
"COc1ccc2nccc(N3CC(N(C)C[C@@H]4CN(c5ccc(OC(F)F)cc5)C(=O)O4)C3)c2n1 [Example 134, (R)-3-(4-Difluoromethoxy-phenyl)-5-({[1-(6-methoxy-[1,5]naphthyridin-4-yl)-azetidin-3-yl]-methyl-amino}-methyl)-oxazolidin-2-one]",≤ 0.031,–
"COc1ccc2nccc(N3CCN(C[C@@H]4CN(c5ccc(OC(F)F)cc5)C(=O)O4)CC3)c2n1 [Example 20, (R)-3-(4-Difluoromethoxy-phenyl)-5-[4-(6-methoxy-[1,5]naphthyridin-4-yl)-piperazin-1-ylmethyl]-oxazolidin-2-one]",≤ 0.031,–
"COc1ccc2nccc(N3CCCN(C[C@@H]4CN(c5ccc(C)c(F)c5)C(=O)O4)CC3)c2n1 [Example 108, (R)-3-(3-Fluoro-4-methyl-phenyl)-5-[4-(6-methoxy-[1,5]naphthyridin-4-yl)-[1,4]diazepan-1-ylmethyl]-oxazolidin-2-one]",0.25,–
"COc1ccc2nccc(N3C[C@H](NC(=O)[C@@H]4CN(c5ccc6c(c5)OCCO6)C(=O)O4)C[C@H]3CO)c2n1 [Example 78, (S)-3-(2,3-Dihydro-benzo[1,4]dioxin-6-yl)-2-oxo-oxazolidine-5-carboxylic acid [(3R,5S)-5-hydroxymethyl-1-(6-methoxy-[1,5]naphthyridin-4-yl)-pyrrolidin-3-yl]-amide]",≤ 0.031,–
"COc1ccc2nccc(N3CCN(C[C@@H]4CN(c5ccc(F)cc5)C(=O)O4)CC3)c2n1 [Example 15, (R)-3-(4-Fluoro-phenyl)-5-[4-(6-methoxy-[1,5]naphthyridin-4-yl)-piperazin-1-ylmethyl]-oxazolidin-2-one]",0.25,–
"COc1ccc2nccc(N3CCN(C[C@@H]4CN(c5ccc(F)c(F)c5)C(=O)O4)CC3)c2n1 [Example 29, (R)-3-(3,4-Difluoro-phenyl)-5-[4-(6-methoxy-[1,5]naphthyridin-4-yl)-piperazin-1-ylmethyl]-oxazolidin-2-one]",≤ 0.031,–
"COc1ccc2nccc(N3CCN(C[C@@H]4CN(c5cccc(C(F)(F)F)c5)C(=O)O4)CC3)c2n1 [Example 16, (R)-5-[4-(6-Methoxy-[1,5]naphthyridin-4-yl)-piperazin-1-ylmethyl]-3-(3-trifluoromethyl-phenyl)-oxazolidin-2-one]",0.25,–
"COc1ccc2nccc(N3CCC(CNC(=O)[C@@H]4CN(c5ccc6c(c5)OCCO6)C(=O)O4)C3)c2n1 (mixture of isomers) [Example 81, (S)-3-(2,3-Dihydro-benzo[1,4]dioxin-6-yl)-2-oxo-oxazolidine-5-carboxylic acid [(RS)-1-(6-methoxy-[1,5]naphthyridin-4-yl)-pyrrolidin-3-ylmethyl]-amide]",0.125,–
"COc1ccc2nccc(N3CCN(C[C@@H]4CN(c5ccc(Br)c(C)c5)C(=O)O4)CC3)c2n1 [Example 31, (R)-3-(4-Bromo-3-methyl-phenyl)-5-[4-(6-methoxy-[1,5]naphthyridin-4-yl)-piperazin-1-ylmethyl]-oxazolidin-2-one]",≤ 0.031,–
"COc1ccc2ncnc(N3CCN(CC4CN(c5ccc6c(c5)OCCO6)C(=O)O4)CC3)c2c1 (racemic) [Example 6, (RS)-3-(2,3-Dihydro-benzo[1,4]dioxin-6-yl)-5-[4-(6-methoxy-quinazolin-4-yl)-piperazin-1-ylmethyl]-oxazolidin-2-one]",≤ 0.031,–

# Results, then the molecule that gave them:
MIC [µg/mL],MIC S aureus A798,Compound
≤ 0.031,–,"COc1ccc2nccc(N3C[C@H]4CCN(C[C@@H]5CN(c6ccc7c(c6)NC(=O)CS7)C(=O)O5)[C@H]4C3)c2n1 (mixture of isomers) [Example 93, 6-{(R)-5-{[(3aR*,6aR*)-5-(6-Methoxy-[1,5]naphthyridin-4-yl)-hexahydro-pyrrolo[3,4-b]pyrrol-1-yl]-methyl}-2-oxo-oxazolidin-3-yl}-4H-benzo[1,4]thiazin-3-one]"
≤ 0.031,–,"COc1cnc2cccc(N3CC(CNC[C@@H]4CN(c5ccc6c(c5)NC(=O)CS6)C(=O)O4)C3)c2c1 [Example 163, 6-[(R)-5-({[1-(3-Methoxy-quinolin-5-yl)-azetidin-3-ylmethyl]-amino}-methyl)-2-oxo-oxazolidin-3-yl]-4H-benzo[1,4]thiazin-3-one]"
≤ 0.031,–,"COc1ccc2ncc(F)c(N3CC(NC[C@@H]4CN(c5ccc6c(c5)NC(=O)CO6)C(=O)O4)C3)c2n1 [Example 45, 6-((R)-5-{[1-(3-Fluoro-6-methoxy-[1,5]naphthyridin-4-yl)-azetidin-3-ylamino]-methyl}-2-oxo-oxazolidin-3-yl)-4H-benzo[1,4]oxazin-3-one]"
≤ 0.031,–,"COc1ccc2nccc(N3CC[C@H](NC[C@@H]4CN(c5ccc6c(c5)NC(=O)CS6)C(=O)O4)C3)c2c1 [Example 172, 6-((R)-5-{[(S)-1-(6-Methoxy-quinolin-4-yl)-pyrrolidin-3-ylamino]-methyl}-2-oxo-oxazolidin-3-yl)-4H-benzo[1,4]thiazin-3-one]"
0.063,–,"N#Cc1ccc2nccc(N3CC[C@@H](NC[C@@H]4CN(c5ccc6c(c5)NC(=O)CS6)C(=O)O4)C3)c2c1 [Example 178, 4-((R)-3-{[(R)-2-oxo-3-(3-oxo-3,4-dihydro-2H-benzo[1,4]thiazin-6-yl)-oxazolidin-5-ylmethyl]-amino}-pyrrolidin-1-yl)-quinoline-6-carbonitrile]"
≤ 0.031,–,"O=C1CSc2ccc(N3C[C@@H](CNC4CCN(c5ccnc6ccc(F)cc56)CC4)OC3=O)cc2N1 [Example 179, 6-((R)-5-{[1-(6-Fluoro-quinolin-4-yl)-piperidin-4-ylamino]-methyl}-2-oxo-oxazolidin-3-yl)-4H-benzo[1,4]thiazin-3-one]"
≤ 0.031,–,"COc1ccc2ncc(F)c(N3CC(NC[C@@H]4CN(c5ccc6c(c5)NC(=O)CS6)C(=O)O4)C3)c2n1 [Example 48, 6-((R)-5-{[1-(3-Fluoro-6-methoxy-[1,5]naphthyridin-4-yl)-azetidin-3-ylamino]-methyl}-2-oxo-oxazolidin-3-yl)-4H-benzo[1,4]thiazin-3-one]"
≤ 0.031,–,"COc1ccc2nccc(N3CC(CNC[C@H]4CN(c5ccc6c(c5)NC(=O)CS6)C(=O)O4)C3)c2n1 [Example 59, 6-[(S)-5-({[1-(6-Methoxy-[1,5]naphthyridin-4-yl)-azetidin-3-ylmethyl]-amino}-methyl)-2-oxo-oxazolidin-3-yl]-4H-benzo[1,4]thiazin-3-one]"
0.063,–,"COc1ccc2nccc(N3CC(CNCCC4CN(c5ccc(C)c(F)c5)C(=O)O4)C3)c2n1 (racemic) [Example 149, (RS)-3-(3-Fluoro-4-methyl-phenyl)-5-(2-{[1-(6-methoxy-[1,5]naphthyridin-4-yl)-azetidin-3-ylmethyl]-amino}-ethyl)-oxazolidin-2-one]"
≤ 0.031,–,"COc1ccc2ncnc(N3CC(NC[C@@H]4CN(c5ccc6c(c5)NC(=O)CO6)C(=O)O4)C3)c2c1 [Example 54, 6-((R)-5-{[1-(6-Methoxy-quinazolin-4-yl)-azetidin-3-ylamino]-methyl}-2-oxo-oxazolidin-3-yl)-4H-benzo[1,4]oxazin-3-one]"
–,<=0.031 mg/l,"COc1ccc2ncc(F)c(N3CC[C@H](NC[C@@H]4CN(c5ccc6c(c5)OCCO6)C(=O)O4)C3)c2n1 [Example 66, (R)-3-(2,3-Dihydro-benzo[1,4]dioxin-6-yl)-5-{[(5)-1-(3-fluoro-6-methoxy-[1,5]naphthyridin-4-yl)-pyrrolidin-3-ylamino]-methyl}-oxazolidin-2-one]"
0.25,–,"CCOc1ccc(N2C[C@@H](CN[C@H]3CCN(c4c(F)cnc5ccc(OC)nc45)C3)OC2=O)cc1 [Example 170, (R)-3-(4-Ethoxy-phenyl)-5-{[(S)-1-(3-fluoro-6-methoxy-[1,5]naphthyridin-4-yl)-pyrrolidin-3-ylamino]-methyl}-oxazolidin-2-one]"
0.25,–,"COc1ccc2nccc(N3CC(CN(C)C[C@H]4CN(c5ccc6c(c5)OCCO6)C(=O)O4)C3)c2n1 [Example 118, (S)-3-(2,3-Dihydro-benzo[1,4]dioxin-6-yl)-5-({[1-(6-methoxy-[1,5]naphthyridin-4-yl)-azetidin-3-ylmethyl]-methyl-amino}-methyl)-oxazolidin-2-one]"
0.125,–,"O=C1CSc2ccc(N3C[C@@H](CN[C@@H]4CCN(c5ccnc6ccc(F)cc56)C4)OC3=O)cc2N1 [Example 177, 6-((R)-5-{[(R)-1-(6-Fluoro-quinolin-4-yl)-pyrrolidin-3-ylamino]-methyl}-2-oxo-oxazolidin-3-yl)-4H-benzo[1,4]thiazin-3-one]"
≤ 0.031,–,"COc1ccc2ncnc(N3CCN(CC4CN(c5ccc6c(c5)NC(=O)CS6)C(=O)O4)CC3)c2c1 (racemic) [Example 7, (RS)-6-{5-[4-(6-Methoxy-quinazolin-4-yl)-piperazin-1-ylmethyl]-2-oxo-oxazolidin-3-yl}-4H-benzo[1,4]thiazin-3-one]"
≤ 0.031,–,"COc1ccc2nccc(N3CCC(NC[C@@H]4CN(c5ccc6c(c5)NC(=O)CO6)C(=O)O4)CC3)c2n1 [Example 120, 6-((R)-5-{[1-(6-Methoxy-[1,5]naphthyridin-4-yl)-piperidin-4-ylamino]-methyl}-2-oxo-oxazolidin-3-yl)-4H-benzo[1,4]oxazin-3-one]"
